In paper PMC11582173, “Synthesis, cytotoxicity, anti-inflammatory, anti-metastatic and anti-oxidant activities of novel chalcones incorporating 2-phenoxy-N-arylacetamide and thiophene moieties: induction of apoptosis in MCF7 and HEP2 cells” (Naunyn-Schmiedeberg's Archives of Pharmacology, 2024):
≈ marks a conversion by molar mass, not a printed value. Where “and” joins values, the source holds several entries; their conditions need not be identical. Equal values may be shown once.

Assays:
[1] = system: normal African Green monkey kidney cell line (VERO); assay: SRB cytotoxic assay, VERO normal cells; assay type: cell-based; settings: Chlorocebus sabaeus, single dose 100 µg/mL, 48 h, read-out: %Inhibition at100 µg/mL VERO
Description: (§1) All the prepared compounds were screened at a concentration of 100 µg/mL against six different human cell lines: human laryngeal carcinoma (HEP2), human colorectal carcinoma (HCT116), human breast carcinoma (MCF7), human Lung carcinoma (A549), human liver carcinoma (HEPG2), and normal African Green monkey kidney cell line (VERO). Doxorubicin was used as a positive control for comparison purposes.
(§2) The human laryngeal carcinoma (HEP2), colorectal carcinoma (HCT116), breast carcinoma (MCF7), Lung carcinoma (A549), liver carcinoma (HEPG2), and normal African Green monkey kidney cell line (VERO) were purchased from American Tissue Culture Collection (Rockville, MD, USA). The cells were treated for 48 h with a single dose (100 µg/mL) of all the tested chalcones. […] In brief, the cells were seeded in a 96-well microtiter plate at a concentration of 5×10^3 cells/well in 100 µL fresh RPMI-1640 medium and left to attach to the plates for 24 h. Then, cells were incubated with 100 μL of different concentrations (50, 25, 12.5, 6.25, and 0.0 µg/mL) of 5c in triplicate at 37 °C for 48 h. After that, the cells were fixed with 10 µL cold 100% Trichloroacetic acid (TCA) for 1h at 4 °C. The wells were then washed 1 time with distilled water using (automatic Tecan washer, Germany) and stained for 30 min at room temperature with 50 µL 0.4% SRB dissolved in 1% acetic acid. The plates were air-dried and the dye was solubilized with 100 µl/well of 1M tris base (pH 10.5) for 5 min. The optical density (O.D.) of each well was measured spectrophotometrically at 570 nm with an ELISA microplate reader (Sunrise Tecan reader, Germany) with automatic shaking for 30 seconds before reading. The mean background absorbance was subtracted automatically and mean values for each drug concentration were calculated. The percentage of cell survival was calculated as follows: Survival fraction= O.D. (treated cells)/ O.D. (control cells) (Bhat et al. [2023]).

[2] = system: human breast carcinoma (MCF7) cells; assay: SRB cytotoxic assay, MCF7; assay type: cell-based; settings: MCF7, 48 h
Description: as §1, §2

[3] = system: Survivin gene; assay: Real-time PCR, Survivin gene expression; assay type: cell-based, human; settings: relative to untreated control (1)
Description: (§3) The expression level of the following six genes (Ki-67, Survivin, Interleukin-1 beta (IL-1B), Interleukin-6 (IL-6), Cyclooxygenase-2 (COX-2) and protein kinase B (AKT1)) was determined in MCF7 and HEP2 treated with the IC50 of compound 5c. The untreated cells were used as a negative control for comparison purposes. […] Ki-67 is a popular proliferation marker for human tumor cells. […] Survivin is an inhibitor of apoptotic protein (IAP) family member, which is essential for cell division. The lowering of the expression of survivin inhibited tumor development, triggered apoptosis, and made tumor cells more susceptible to radiation and chemotherapy (Albadari and Li [2023]). […] IL-1B is a pleiotropic mediator of inflammation, which is produced in response to a variety of stressors (Aarreberg et al. [2019]). […] IL-6 is a pro-inflammatory cytokine that plays a significant role in the proliferation and differentiation of human cells. It promotes the production of numerous proteins involved in acute inflammation (Uciechowski and Dempke [2020]). […]
(§4) The expression level of the following six genes (Ki-67, survivin, AKT1, IL-6, COX2, and IL-1B) was examined using real-time polymerase chain reaction (qPCR) (Mohamed et al. [2023a]). […] The cycle threshold (Ct) was determined automatically. […]

[4] = system: HEP2 cells; assay: Flow cytometric analysis of cell cycle, HEP2; assay type: cell-based, human; settings: HEP2, IC50 of 5c, 48 h
Description: In the G0-G1 stage, the percentage of 5c-treated cells declined to 55.4% as opposed to 57.6% of untreated control cells. It was found in a previous work that lutein-induced G2/M phase arrest in A549 and PC-9 cells (Di et al. [2019]).
In DMEM-supplemented media, cells were plated in 12-well plates at a cell density of 6–8×10^5 per well. After twenty-four hours, cells were cultured for an additional 48 hours with the IC50 of the target compound. The untreated cells were used as a negative control. After 48 h of incubation, the treated cells were centrifuged at 1,200 rpm and 4 °C for 10 min. After discarding the supernatant, the wells were then given a single phosphate-buffered saline (PBS) wash and then centrifuged for 10 min at 1,200 rpm. Trypsin/EDTA was used to collect the cells, and after one PBS wash, they were resuspended in 0.5 mL of 0.05% Triton X-100 for 10 min at room temperature. Each cell suspension was stained by being given 1 mL of 50 µg/mL propidium iodide (PI) to be left at room temperature in the darkness for 20 minutes. The analysis of the cell cycle was done by a flow cytometer (Becton Dickenson (BD) FACSCalibur, USA) (Michalkova et al. [2022]).

[5] = system: KI-67 gene; assay: Real-time PCR, KI-67 gene expression; assay type: cell-based, human; settings: relative to untreated control (1), normalized to GAPDH
Description: as §3, §4

[6] = HEP2 cells treated with IC50 of 5c
[7] = MCF7 cells treated with IC50 of 5c

## COc1ccc(NC(=O)COc2ccc(C=CC(=O)c3cccs3)cc2)cc1 [Compound 5c, N-(4-Methoxyphenyl)-2-(4-(3-oxo-3-(thiophen-2-yl)prop-1-en-1-yl)phenoxy)acetamide]
[1]
  inhibition at 100 µg/mL: 58 ± 1.5%
[2]
  IC50: 9.5 µg/mL (≈ 24.1 µM)
[2]; single dose 100 µg/mL, read-out: %Inhibition at100 µg/mL MCF7
  inhibition at 100 µg/mL: > 75%
[3]; [6]
  Survivin expression folding: 0.489±0.07 fold
[3]; [7]
  Survivin expression folding: 0.632±0.0618 fold
[4]; untreated control 2.205±0.10607
  Percentage of DNA in G2-M phase: 3.56% and 3.565±0.1485%
[4]; untreated control 40.095±0.36062
  Percentage of DNA in S phase: 40.96% and 40.96±0.08485%
[4]; untreated control 57.67±0.21213
  Percentage of DNA in G0-G1 phase: 55.4% and 55.475±0.233%
[5]; [6]
  KI67 expression folding: 0.648±0.015 fold
[5]; [7]
  KI67 expression folding: 0.352±0.0172 fold
